Test results as given in paper PMC11676196, “Inhibition of TFAM-Mediated Mitophagy by Oroxylin A Restored Sorafenib Sensitivity Under Hypoxia Conditions in HepG2 Cells” (Pharmaceuticals, 2024).

Molecular target: T1, TFAM (mitochondrial transcription factor A) (Homo sapiens, UniProt Q00059)
T1 construct: endogenous protein in intact human HepG2 cells
T1 sequence (Q00059 43-246): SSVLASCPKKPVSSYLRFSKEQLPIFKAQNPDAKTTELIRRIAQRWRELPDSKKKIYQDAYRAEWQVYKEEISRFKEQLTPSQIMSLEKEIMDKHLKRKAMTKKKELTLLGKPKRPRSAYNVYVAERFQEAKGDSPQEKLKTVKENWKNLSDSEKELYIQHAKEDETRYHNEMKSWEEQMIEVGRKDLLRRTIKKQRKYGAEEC
Assay: cellular thermal shift assay (CETSA), Western blot
Type: cell-based
Conditions: intact cells incubated 2 h with or without OA, heated 3 min at 43 to 70 °C; rightward shift of melting curve

COc1c(O)cc2oc(-c3ccccc3)cc(=O)c2c1O [Oroxylin A] was tested, and the thermal shift was “thermal shift assays showed a significant rightward shift in the thermal melting curve upon OA administration”.
